Data set [1] can be described thus: Quality of wine from treated Cabernet Sauvignon grapes (colour density, phenolics, tasting panel score). Details: species or system grape. As to conditions: for Wine assessment: tasting panel score from 5 characteristics (color intensity, aroma intensity, body/fullness, flavor intensity, finish), 200 ppm of each compound at veraison. On the procedure: (§1) A replicated field experiment was conducted on the red wine grape cultivar ‘Cabernet Sauvignon’ in the Riverland growing region of South Australia. The vineyard was 19 years old with a vine spacing of 3 m by 3 m. The plot size was nine vines/replicate with three replicates/treatment. […] Treatments were mixed with the adjuvant Agral 600 (10 mL/100 L v/v; CropCare Australasia, Pty Ltd.).

Data set [2] concerns red table grape cultivar 'Crimson Seedless'. Briefly: Replicated field experiment on Crimson Seedless table grapes: colour development (harvestable clusters), firmness, berry weight, Brix; Synergy Index. As to conditions: for Firmness: at harvest; for Cumulative harvestable clusters: foliar, veraison plus seven days, Crimson Seedless; for Effect on cumulative harvestable cluster number (in words): applied alone, dose-dependent, 88 to 877 mg/vine; for Dose acting alone which produced the end point (QA, QB): end point 24.7 cumulative harvestable clusters. The source says:
The vineyard was 12 years old and on overhead trellis with a vine spacing of 12 ft by 7 ft (518 vines/acre). Plot size was three vines/replicate, with six replicates/treatments. The area evaluated within each plot was one center vine and two half vines on each side for a total of two vines. Applications were made seven days after veraison (beginning of berry softening). On the day of application, red coloration was developing on about 10% of the berries. […] All treatments were mixed with the adjuvant Latron B-1956 (0.05% v/v; Dow AgroSciences LLC, Indianapolis, Ind.). Treatments were applied with a backpack mist blower at 200 gallons/acre (757 l/acre).
The total grape clusters were counted on the day of application. After treatment, the plots were evaluated weekly for color development by counting the number of harvestable colored grape clusters in each plot. All harvestable colored clusters were removed 79 days later to eliminate over-mature clusters. The number of harvestable colored grape clusters was expressed as cumulative harvestable clusters (number of harvestable clusters per two vines). Average berry firmness, weight and Brix (soluble solids) were evaluated 5 days later. Evaluation samples consisted of 10 second shoulders (second lateral branch of the main rachis) from 10 different clusters selected randomly from each plot. All berries in the evaluation samples were removed, counted, and weighed. A sub-sample of 20 to 30 berries was crushed for brix (soluble solids) analysis. Brix was measured with a handheld temperature compensating Leica Refractometer. An additional 10 berries were selected randomly for berry firmness. Berry firmness was determined by a hand held Wilson Penetrometer (0 to 1000 g) mounted on a stand with a 6 mm tip.
Synergy was determined by an industrially accepted method (Kull et al., 1961, Applied Microbiology 9:538-541 and Robertson and Ramesh, 1998, U.S. Pat. No. 5,716,629). Synergy Index=Qa/QA+Qb/QB where:
Qa=dose of compound A in mg/vine, in the mixture, which produced an end point
QA=dose of compound A in mg/vine, acting alone, which produced an end point.
Qb=[…] of compound B in mg/vine, in the mixture, which produced an end point.
QB=dose of compound B in mg/vine, acting alone, which produced an end point.
Synergy, additivity, or antagonism are shown when the Synergy Index is less than one, equal to one, or greater than one, respectively.

The test system of data set [3] is red wine grape cultivar 'Cabernet Sauvignon'. Briefly: Replicated field experiment on Cabernet Sauvignon wine grapes: grape quality at harvest. As to conditions: 200 ppm of each compound applied, foliar at veraison. It is filed as in vivo. On the procedure: as §1
Setting [4] is: 88 mg/vine of each compound applied.
The mark [5] stands for this setting: 292 mg/vine of each compound applied.
Where [6] appears, read: 200 ppm of each compound applied, foliar at veraison, Cabernet Sauvignon.

As to `O=P(O)(O)CCCl` [Ethephon], the Wine assessment is reported as 2.3 in data set [1] and “did not affect” in data set [1] (listed as ethephon). Further, the Firmness worked out at 765 g in data set [2] (setting [4]) and 709 g in data set [2] (877 mg/vine). For the same compound, the figures for the Cumulative harvestable clusters in data set [2] (setting [4]), in data set [2] (setting [5]) and in data set [2] (877 mg/vine) were 9.2 no. per two vines, 15.7 no. per two vines and 40.2 no. per two vines, respectively. Moreover, in data set [2], the “Effect on cumulative harvestable cluster number (in words)” value is on record as “increased”. In addition, the “Dose acting alone which produced the end point (QA, QB)” value in data set [2] amounted to 484 mg/vine.
In the case of “(S)-5-(1-hydroxy-2,6,6,-trimethyl-4-oxo-2-cyclohexen-1-yl)-3-methyl-(2Z,4E)-pentadienoic acid [S-ABA]”, the Wine color density result in data set [1] (setting [6]) is listed as “lower than in the untreated”; in data set [1] (200 ppm of each compound applied, foliar at veraison, Cabernet Sauvignon, listed as ABA), 5.6. For the same compound, the Wine phenolics in data set [1] (setting [6]) came out at 20.2. In addition, the Wine assessment result is reported as “higher wine assessment score” in data set [1] and 2.7 in data set [1] (listed as ABA). For the same compound, the Cumulative harvestable clusters was determined as 11.8 no. per two vines in data set [2] (setting [4]), 38.0 no. per two vines in data set [2] (setting [5]) and 43.8 no. per two vines in data set [2] (877 mg/vine). Moreover, in data set [2], the “Effect on cumulative harvestable cluster number (in words)” value is given as “increased”. In addition, the “Dose acting alone which produced the end point (QA, QB)” value in data set [2] is on record as 337 mg/vine. Besides, the “Anthocyanins, grapes at harvest” value in data set [3] was “lower than in the untreated”; in data set [3] (listed as ABA), 0.78 mg/g.

The record behind these values is US9808004B2, “Synergistic combination to improve grape color and to alter sensory characteristics of wine” (Valent BioSciences Corporation, priority 2007, dated 2017).
